A short description of this series: Pharmacokinetics of bupropion in plasma after oral administration to four normal male subjects (RIA using 3H bupropion). The series is classed as in vivo. To be noted: human plasma, oral 200 mg bupropion-HCl (two 100 mg tablets). Here is the method: Samples of six standard solutions of bupropion in blank plasma having concentrations of 0.39 to 50 ng/ml) are pipetted (0.1 ml each) in duplicate into 12×75 mm plastic tubes. Duplicate non-specific binding (no antibody) and maximum binding tubes (no unlabeled bupropion) receive 0.1 ml blank plasma. Spiked plasma controls at several concentrations of (e.g., 1.0, 10.0, and 100 ng/ml) and plasma samples for assay (diluted into the standard range with blank plasma if necessary) are assayed in duplicate. After being placed in an ice bath, all tubes receive (in order) 0.2 ml ^3 H bupropion (416 pg. containing approximately 10^4 cpm) and 0.7 ml anti-bupropion serum (raised to a ring-functionalized immunogen according to the present invention) (at pre-determined dilutions such that approximately 40% of the ^3 H bupropion added is bound), both in assay buffer (0.05 M phosphate-bufferedisotonic saline, containing 0.01 M EDTA and 0.1% gelatin, pH 7.0). […] The supernatants, containing antibody-bound ^3 H bupropion are carefully decanted into liquid scintillation cocktail for quantitation of ^3 H. After counts (minus average non-specific binding cpm) are expressed as percentages of average maximum binding cpm, bupropion concentrations in plasma samples and spiked controls are read from a standard curve (log concentration vs percent average maximum binding).
The procedure of Example X has been applied to a study of bupropion (supplied as Wellbatrin, produced by Burroughs Wellcome Co.) pharmacokinetics in plasma after oral administration of 200 mg bupropion-HCl (in two 100 mg tablets) to four normal male subjects. Venous blood samples were collected at various times following dosing, and concentrations in plasma samples determined as described. […]

Results on 1 compound are retold here after patent US4347177A, “Compounds and methods of making them” (Burroughs Wellcome Co., priority 1980, dated 1982).

For orientation: half-life means how long it takes for the measured level to halve. Take `CC(NC(C)(C)C)C(=O)c1cccc(Cl)c1` (racemic) [bupropion, (±)-2-tert-butylamino-3'-chloropropiophenone]: the Cmax (mean ± S.D., read-out: maximum plasma bupropion concentration) was 217 ± 37 ng/mL. The Tmax (mean ± S.D., read-out: time to reach maximum concentration) came out at 1.5 ± 0.4 h. Further, the half-life (± S.D., read-out: mean elimination half-life (converted)) is 2.9 ± 0.4 h.
